This note sets out measurements from US12364689B2, “Dosage regimen for the treatment of cancer” (AstraZeneca AB, priority 2020, dated 2025).

SMILES strings stand for the structures.

In assay [1] the test system is ER positive, HER2 negative advanced breast cancer. In words: Phase 1 dose-escalation and expansion clinical trial: anti-tumour activity by RECIST 1.1. To be noted: for ORR (%) objective response rate: responders/evaluable (percent). The assay is classed as in vivo, human. The text has this: “Objective response rate” is the percentage of patients with measurable disease at baseline and who have a date of first dose of >17 weeks or a date of post-treatment scan of >15 weeks that indicates a confirmed response as measured by the RECIST criteria. “Clinical benefit rate” is the percentage of patients who have a date of first dose of ≥25 weeks or a date of post-treatment scan of >23 weeks that indicates a confirmed response or stable disease as measured by the RECIST criteria for >23 weeks post treatment. Introduction: To determine the optimal dosing regimen for AZD9833 Phase 1 dose-escalation and expansion in patients with ER positive, HER2 negative advanced breast cancer was carried out according to the following basic protocol. Overall Design: This is a multicentre dose escalation and expansion, first-in-human study designed to evaluate the safety and tolerability of AZD9833 alone (Parts A and B) in women with endocrine-resistant ER+HER2-breast cancer that is not amenable to treatment with curative intent. Efficacy Assessment: Anti-tumour activity will be evaluated using RECIST 1.1 by investigator assessments. Baseline tumour assessments should encompass all areas of known predilection for metastases in the disease under evaluation and should additionally investigate areas that may be involved based on signs and symptoms of individual subjects. Baseline assessments should be performed no more than 28 days before the start of AZD9833, ideally, as close as possible to the start of AZD9833. The methods of assessment used at baseline should be used at each subsequent assessment during treatment and follow-up part of the study. Any other sites at which new disease is suspected should also be appropriately imaged. If an unscheduled assessment is performed and the subject has not progressed, every attempt should be made to perform subsequent assessments at the scheduled visits while the subject remains on AZD9833 or until they have progressed. Categorisation of objective tumour response assessment will be based on the RECIST 1.1 guidelines for response: complete response (CR), partial response (PR), stable disease (SD), and progression of disease (PD). For subjects who only have non-measurable disease at baseline, categorisation of objective tumour response assessment will be based on the RECIST 1.1 guidelines for response for non-target lesions (NTLs): CR, PD, and non-CR/non PD. If the investigator is unsure whether progression has occurred, particularly with response to NTLs or the appearance of a new lesion, it is advisable to continue AZD9833 and reassess the subject's status at the next scheduled assessment, or sooner if clinically indicated. To achieve ‘unequivocal progression’ on the basis of non-target disease, there must be an overall level of substantial worsening in non-target disease such that, even in presence of SD or PR in the target disease, the overall tumour burden has increased sufficiently to merit discontinuation of therapy. A modest increase in the size of one or more NTLs is usually not sufficient to qualify for unequivocal disease progression status. A clinical trial according to the above protocol was carried out using 60 patients.

Assay [2] concerns ER signalling pathway / Ki67. In words: Phase 1 clinical trial: pharmacodynamic biomarkers in paired tumour biopsies. The assay is classed as in vivo, human. The text has this:
Pharmacodynamics: Pharmacodynamic measurements will be made on a number of biomarkers (e.g., optional tumour biopsies, plasma ctDNA, CTC, and archival tumour tissue). Biological samples (archival tumour tissue, mandatory and optional biopsies where applicable) will be collected for the analysis of tumour DNA as an exploratory objective in this study. A 2-mL blood sample for DNA isolation will be collected prior to administration of the first dose of AZD9833 from subjects who have consented to participate in the genetic analysis component of this study. If for any reason the sample is not drawn prior to dosing, it may be taken at any visit until the last study visit. Only one sample for genetic research should be collected per subject during the study. Participation is optional.
In Part A, paired tumour biopsy samples will be taken from at least 2 subjects at each dose level. In Part B, these biopsies will be taken from at least 5 post-menopausal subjects at each AZD9833 dose level, 300 mg, 150 mg and 75 mg and at least 5 from pre-menopausal subjects at 300 mg. If subjects are willing to participate in this part of the study, they will sign a biopsy-specific written informed consent. Paired tumour biopsies will be obtained from subjects with accessible tumours who have consented to biopsies. […]

On to `C[C@@H]1Cc2c(ccc3[nH]ncc23)[C@@H](c2ccc(NC3CN(CCCF)C3)cn2)N1CC(F)(F)F` [AZD9833, N-(1-(3-fluoropropyl)azetidin-3-yl)-6-((6S,8R)-8-methyl-7-(2,2,2-trifluoroethyl)-6,7,8,9-tetrahydro-3H-pyrazolo[4,3-f]isoquinolin-6-yl) pyridin-3-amine], for which the “CBR (%) clinical benefit rate at 24 weeks” value in assay [1] (25 mg QD oral (n = 12)) is reported as 4/12 (33.3) %; in assay [1] (75 mg QD oral (n = 12)), 8/12 (66.7) %; in assay [1] (150 mg QD oral (n = 13)), 4/13 (30.8) %; in assay [1] (300 mg QD oral (n = 13)) it was 3/11 (27.3) %; in assay [1] (450 mg QD oral (n = 10)), 3/4 (75.0) %; in assay [1] (Total, all doses (n = 60)), 22/52 (42.3) %. Also, the “ORR (%) objective response rate” value is on record as 1/9 (11.1) % in assay [1] (25 mg QD oral (n = 12)); 1/7 (14.3) % in assay [1] (75 mg QD oral (n = 12)); 2/11 (18.2) % in assay [1] (150 mg QD oral (n = 13)); 2/10 (20.0) % in assay [1] (300 mg QD oral (n = 13)); 1/6 (16.7) % in assay [1] (450 mg QD oral (n = 10)); 7/43 (16.3) % in assay [1] (Total, all doses (n = 60)). The “Evidence of clinical benefit and target engagement” value in assay [1] (women with ER+ ABC, incl. pre-treated with CDK4/6 inhibitors and fulvestrant, and ESR1 mutations) is reported as “observed at all dose levels”. Further, the “ER signalling pathway modulation” value in assay [2] (all dose cohorts) is recorded as “observed in all dose cohorts”. Moreover, in assay [2] (patients where clinical responses occurred and paired biopsies obtained), the “reduction in Ki67” value is 98%.
